Data published in US20260273033A1, “NOVEL LIPID NANOPARTICLE FORMULATIONS FOR DELIVERY OF NUCLEIC ACIDS” (CureVac SE, priority 2023, published 2026).

Legend:
[1] = Immune responses of mRNA vaccines in vivo, DPhyPE versus DSPC as neutral lipid; conditions: DPhyPE versus DSPC as neutral lipid in LNP compositions
[2] = in vivo; cited from earlier work

Compound | immune responses of mRNA vaccines in vivo, neutral lipid comparison [1] | accumulation in tissue [2] | excretion [2]
CC(C)CCCC(C)CCCC(C)CCCC(C)CC(=O)OC[C@H](COP(=O)(O)OCCN)OC(=O)CC(C)CCCC(C)CCCC(C)CCCC(C)C (stereo partly drawn) [DPhyPE, 1,2-diphytanoyl-sn-glycero-3-phosphoethanolamine] | clear advantage over DSPC |  | 
poly(2-methyl-2-oxazoline) [PMOZ] |  | no significant accumulation in tissue | rapidly excreted by the kidney
